Patent US20140287916A1, “PESTICIDAL COMPOUNDS” (SYNGENTA PARTICIPATIONS AG, priority 2011, published 2014)

Row | melting point | Compound
1 | 83 to 84 °C | O=C(NCC1(c2nc(C3CC3)cs2)CC1)c1ccccc1C(F)(F)F [A.10, N-[[1-(4-cyclopropylthiazol-2-yl)cyclopropyl]methyl]-2-(trifluoromethyl)benzamide]
2 | 146 to 147 °C | O=C(NCC1(c2nc(Cl)cs2)CC1)c1cccnc1C(F)(F)F [A.21, N-[[1-(4-chlorothiazol-2-yl)cyclopropyl]methyl]-2-(trifluoromethyl)pyridine-3-carboxamide]
3 | 94 to 96 °C | O=C(NCC1(c2ncc(C(F)(F)F)s2)CC1)c1ccccc1C(F)(F)F [A.29, 2-(trifluoromethyl)-N-[[1-[5-(trifluoromethyl)thiazol-2-yl]cyclopropyl]methyl]benzamide]
